Counter-ions that a name gives are not always drawn.
What was measured:
A2780 cells = test: Toxicity of drug-loaded vesicles to A2780 by MTT; type: cell-based; conditions: Homo sapiens; A2780, CPT.HCl, 4 h co-cultivation + 44 h; transferrin-CLPs with 30% transferrin
[1] = tested on: A2780 subcutaneous ovarian cancer; test: Antitumor effect, A2780 subcutaneous ovarian cancer; conditions: at 10th day
in vivo = conditions: Balb/C nude, mouse, 10 mg/kg

| half-life (in vivo) [min] | SMILES | IC50 (A2780 cells) [µg/mL] | body weight decrease [1] [%] |
| --- | --- | --- | --- |
|  | CCc1c2c(nc3ccc(OC(=O)N4CCC(N5CCCCC5)CC4)cc13)-c1cc3c(c(=O)n1C2)COC(=O)[C@]3(O)CC [CPT.HCl, irinotecan hydrochloride] | 4.11 | 18 |
| 16.2 | COc1cccc2c1C(=O)c1c(O)c3c(c(O)c1C2=O)C[C@@](O)(C(=O)CO)C[C@@H]3O[C@H]1C[C@H](N)[C@H](O)[C@H](C)O1 [DOX.HCl, doxorubicin hydrochloride] |  |  |

Source: patent publication US20180360766A1, “OVARIAN CANCER SPECIFICALLY TARGETED BIODEGRADABLE AMPHIPHILIC POLYMER, POLYMER VESICLE PREPARED THEREBY AND USE THEREOF” (BRIGHTGENE BIO-MEDICAL TECHNOLOGY CO., LTD., priority 2016, published 2018)
